In patent US20260021055A1, “Asymmetric Piperazine-Based Cationic Lipids” (TRANSLATE BIO, INC., priority 2022, published 2026):

Test system: hEPO protein produced in the serum
Test: Delivery of human erythropoietin (hEPO) mRNA by intramuscular administration; hEPO protein in serum by ELISA
Assay type: in vivo, Mice
Settings: for in vivo protein production (hEPO protein) after delivery of hEPO mRNA: lipid nanoparticles comprising the compound, FIG. 1; for effectiveness in delivering hEPO mRNA compared with control cationic lipid: mice, intramuscular, lipid nanoparticles comprising the lipid, FIG. 1 and Table F
Method: For the hEPO animal dosing studies, the lipid nanoparticles (LNPs) are diluted to […] in 10% trehalose. Mice are dosed intramuscularly (IM) with 0.1 μg in 30 μL volume into right gastrocnemius muscle on the leg of the mouse. Blood samples are collected 6 hours and 24 hours post injection to measure the amount of hEPO protein produced in the serum. The hEPO protein amounts are detected using an ELISA assay from commercially available kits. Lipid nanoparticle formulations described in Table D above encapsulating hEPO mRNA were prepared by Process A as described above for intramuscular (IM) administration in accordance with the above procedure.

Structure (SMILES)	in vivo protein production (hEPO protein) after delivery of hEPO mRNA	effectiveness in delivering hEPO mRNA compared with control cationic lipid
CCCCCCCC/C=C\CCCCCCC(O)CN(CCCCSSCCCN1CC(C)N(CCOC(=O)CCCN(CC(O)CCCCCCCCCC)CC(O)CCCCCCCCCC)CC1C)CC(O)CCCCCC/C=C\CCCCCCCC (stereo not shown) [Compound B1]	high levels of in vivo protein production	more effective in delivering hEPO mRNA than the control cationic lipid DLin-MC3-DMA
CCCCCCCC/C=C\CCCCCCC(O)CN(CCCCSSCCCCN1CC(C)N(CCOC(=O)CCCN(CC(O)CCCCCCCCCC)CC(O)CCCCCCCCCC)CC1C)CC(O)CCCCCC/C=C\CCCCCCCC (stereo not shown) [Compound C1]	high levels of in vivo protein production	more effective in delivering hEPO mRNA than the control cationic lipid DLin-MC3-DMA
